Assays:
[1] = system: immortalized human dermal microvascular endothelial cells (HMEC-1); assay: Cytostatic activity, HMEC-1 proliferation; assay type: cell-based; conditions: HMEC-1, read-out: IC50 HMEC-1, inhibit cell proliferation by 50%
[2] = system: human embryonic lung (HEL) cells; conditions: HEL cell cultures (Table 5); microscopically detectable alteration of normal cell morphology
[3] = system: human cervix carcinoma (HeLa) cells; conditions: read-out: IC50 HeLa; inhibit cell proliferation by 50%; cited from earlier work
[4] = system: murine leukemia (L1210) cells; conditions: read-out: IC50 L1210; inhibit cell proliferation by 50%; cited from earlier work
[5] = system: human T-lymphocyte (CEM) cells; conditions: read-out: IC50 CEM; inhibit cell proliferation by 50%; cited from earlier work
TK+ VZV Oka strain = assay type: cell-based, varicella-zoster virus
TK− VZV 07-1 strain = assay type: cell-based, varicella-zoster virus
Human Coronavirus (229E) = assay type: cell-based; conditions: read-out: Antiviral activity EC50 Human Coronavirus (229E)

CCOP(=O)(OCC)[C@@H]1C[C@@H](Cn2c(=O)n(C(=O)c3ccc(F)cc3)c(=O)c3ccccc32)ON1C (relative stereo) [trans-12d, Diethyl trans-{5-[(3-(4-fluorobenzoyl)-2,4-dioxo-3,4-dihydroquinazolin-1(2H)-yl)methyl]-2-methylisoxazolidin-3-yl}phosphonate]
IC50 [1]: > 250 µM | Minimum cytotoxic concentration [2]: ≥100 ± 0 µM

CCOP(=O)(OCC)[C@@H]1C[C@@H](Cn2c(=O)n(C(=O)c3ccccc3)c(=O)c3ccccc32)ON1Cc1ccccc1 (relative stereo) [trans-13a, Diethyl trans-{5-[(3-benzoyl-2,4-dioxo-3,4-dihydroquinazolin-1(2H)-yl)methyl]-2-benzylisoxazolidin-3-yl}phosphonate]
IC50 [1]: > 250 µM

Nc1nc2c(ncn2COCCO)c(=O)[nH]1 [Acyclovir]
Minimum cytotoxic concentration [2]: >250 µM

Cc1cn([C@H]2C[C@H](F)[C@@H](CO)O2)c(=O)[nH]c1=O [Alovudine]
Minimum cytotoxic concentration [2]: >250 µM

Nc1ccn(C[C@@H](CO)OCP(=O)(O)O)c(=O)n1.O.O [Cidofovir]
Minimum cytotoxic concentration [2]: >250 µM

Nc1nc(O)c2ncn(COC(CO)CO)c2n1 [Ganciclovir]
Minimum cytotoxic concentration [2]: >100 µM

NC(=O)c1ncn([C@@H]2O[C@H](CO)[C@@H](O)[C@H]2O)n1 [Ribavirin]
Minimum cytotoxic concentration [2]: ≥250 µM

Nc1ccn([C@H]2CC[C@@H](CO)O2)c(=O)n1 [Zalcitabine]
Minimum cytotoxic concentration [2]: >250 µM

CCOP(=O)(OCC)[C@H]1C[C@@H](Cn2ccc(=O)n(C(=O)c3ccccc3)c2=O)ON1C [cis-11a]
IC50 [3]: > 200 µM | IC50 [4]: > 200 µM | IC50 [5]: > 200 µM

CCOP(=O)(OCC)[C@H]1C[C@@H](Cn2c(=O)n(C(=O)c3ccccc3)c(=O)c3ccccc32)ON1C [cis-12a]
IC50 [3]: > 200 µM | IC50 [4]: > 200 µM

CCOP(=O)(OCC)C1CC(Cn2c(=O)n(Cc3ccccc3F)c(=O)c3ccccc32)ON1Cc1ccccc1 (stereo not drawn) [cis-15b/trans-15b (87:13)]
fold less active against the TK+ virus compared to acyclovir (TK+ VZV Oka strain): 4–6 fold | fold more active against the TK– strain compared to acyclovir (TK− VZV 07-1 strain): 10–14 fold

CCOP(=O)(OCC)[C@@H]1C[C@@H](Cn2ccc(=O)n(C(=O)c3ccccc3)c2=O)ON1C [trans-11a]
IC50 [3]: > 200 µM | IC50 [4]: > 200 µM | IC50 [5]: > 200 µM

CCOP(=O)(OCC)[C@@H]1C[C@@H](Cn2c(=O)n(C(=O)c3ccccc3)c(=O)c3ccccc32)ON1C [trans-12a]
IC50 [4]: ≥ 159 µM

CCOP(=O)(OCC)C1CC(Cn2c(=O)n(Cc3ccc(F)cc3)c(=O)c3ccccc32)ON1Cc1ccccc1 (stereo not drawn) [trans-15d/cis-15d (95:5)]
fold less active against the TK+ virus compared to acyclovir (TK+ VZV Oka strain): 4–6 fold | fold more active against the TK– strain compared to acyclovir (TK− VZV 07-1 strain): 10–14 fold

B1: UDA: Urtica dioica agglutinin (UDA), reference compound (protein, UniProt P11218 24-372, looked up)
Lectin/endochitinase 1: QRCGSQGGGGTCPALWCCSIWGWCGDSEPYCGRTCENKCWSGERSDHRCGAAVGNPPCGQDRCCSVHGWCGGGNDYCSGSKCQYRCSSSVRGPRVALSGNSTANSIGNVVVTEPLFDQMFSHRKDCPSQGFYSYHSFLVAAESFPAFGTIGDVATRKREVAAFLAHISQATSGERSDVENPHAWGLCHINTTTVTENDFCTSSDWPCAAGKKYSPRGPIQLTHNFNYGLAGQAIGEDLIQNPDLVEKDPIISFKTALWFWMSQHDNKPSCHDIVLNANSAANRIPNKGVIGNIISRAFGHDDFAVRSSSIGFYKRYCDMLGVSYGHDLKYWFDNTPSSEFQRIQMRVAA
EC50 (Human Coronavirus (229E)): 0.4 µM | Minimum cytotoxic concentration [2]: ≥100 µM
